Peptide text beside a SMILES is read from it. * marks the point of attachment. 5FAM = O=C1OC2(c3ccc(O)cc3Oc3cc(O)ccc32)c2ccc(C(=O)*)cc21; Ahx = NCCCCCC(=O)O
How the values were obtained:
[1] = Liver accumulation in the biodistribution study; format: in vivo, Balb/c mice; details: i.v., i.p. and oral, 30 nmol, 24 h circulation, immunostaining, n = 3 mice
Method: (§1) We subsequently determined the blood half‐life of FAM‐MACTIDE using i.v. and i.p. administration (Figure S1, Supporting Information).
(§2) When tumors reached ≈100 mm^3, 30 nmol of FAM‐MACTIDE or FAM‐mUNO was injected i.p., i.v. or through oral gavage and circulated for 24 h. […] Blocks were cryosectioned at 10 µm thickness on Superfrost+ slides (ThermoFisher Scientific, catalog no. J1800AMNZ) and stored at −20 °C or used instantly. Immunofluorescence staining was performed as described previously.^[ [5] ^] […] Slides were counterstained using 4,6‐diamidino‐2‐phenylindole (DAPI, 5 µg mL^−1 in PBS, Sigma–Aldrich, catalog no. D9542‐5MG). […] The colocalization analysis was performed using the “Coloc2” plugin in the Fiji program using Mandler's tM2 index. Values were obtained from at least three individual images per mouse per group and their average values were plotted. The FAM mean signal per CD206^+ cell analysis was measured using Fiji, taking the mean FAM signal, and dividing it by the number of CD206^+ cells. Average values were obtained from four images per mouse for n = 3 mice.

[2] = test system: CD206; details: cited from earlier work
Excerpt: Targeting CD206 is also promising for diagnostic purposes, as an increased number of CD206^+ cells in lymph nodes correlates with relapse onset in some cancers.^[ [6] ^] Most synthetic compounds designed to target CD206 utilize mannose as the recognition moiety.

[3] = Peptide stability in 4T1 tumor lysate (LC-MS); format: in vitro ADME; details: lysate of 4T1 orthotopic TNBC tumors (mouse), 30 µM peptide, 37 °C, aliquots 0, 10, 30, 60, 180, 1440 min
Method: Figure 3 MACTIDE has higher affinity and proteolytic stability than mUNO. A) QCM experiment of MACTIDE, mUNO, and control peptides at a final concentration of 10 µM in PBS on multilayers of PAH/CD206 or control multilayers of PAH/BSA. The black arrow indicates when the peptides were added, blue and red arrows indicate when the washing step with PBS started. B) Integrity of FAM‐MACTIDE and FAM‐mUNO measured by LC‐MS at different time points after incubation of peptides with lysate derived from a 4T1 tumor.
We next evaluated the stability of fluorescein (FAM)‐MACTIDE against proteases from breast tumors. To this end, we incubated both FAM‐MACTIDE and FAM‐mUNO with a tumor lysate obtained from 4T1 orthotopic TNBC tumors using different timepoints and evaluated the integrity of the peptide using liquid chromatography‐mass spectrometry (LC‐MS). We observed that the half‐life of FAM‐MACTIDE in this tumor lysate increased 5‐fold with respect to FAM‐mUNO (Figure 3B).
For peptide stability measurements, 200 µL of freshly prepared tumor lysate was mixed with 50 µL of PBS (as control), 30 µM of FAM‐mUNO, or 30 µM of FAM‐MACTIDE and incubated at 37 °C. 40 µL aliquots were taken at 0, 10, 30, 60, 180 and 1440 min. 80 µL of methanol was added to each aliquot and it was immediately stored at −80 °C until analysis later on the same or the following day. […]

[4] = test system: CD206^+ TAM; test: In vivo homing to CD206+ TAM in orthotopic 4T1 tumor-bearing mice; design: species or system Balb/c mice; details: 30 nmol, 24 h circulation
Method: as §1
Thirty nmol of FAM‐MACTIDE or FAM‐mUNO were administered i.v. (A), i.p. (B), or orally (C) and left to circulate for 24 h. After 24 h, mice were sacrificed, and the organs were collected, fixed, cryoprotected, sectioned, and immunostained for FAM (shown in green) and CD206 (shown in red). The CD206/FAM colocalization indices were calculated from representative images from n = 3 tumors, using Fiji (Mandler's tM2 index) and the signal intensity per CD206^+ TAM (i.p. administration) was quantified using ImageJ (B). Scale bars = 100 µm. ^* p ≤ 0.05, ^** p ≤ 0.01 (Anova one‐way fisher LSD).
as §2

[5] = Blood half-life by plasma fluorescence; format: in vivo, mice; details: i.v. and i.p., 30 nmoles, plasma fluorescence in FAM channel, n = 3; compared with FAM-mUNO values of ref 5
Excerpt: We subsequently determined the blood half‐life of FAM‐MACTIDE using i.v. and i.p. administration (Figure S1, Supporting Information). […] Importantly, we observed low liver accumulation with these administration routes for both peptides (Figure S2, Supporting Information).
Figure S1.: Pharmacokinetics of i.p. and i.v. administered FAM-MACTIDE (30 nmoles) analyzed by detecting plasma fluorescence in the FAM channel at different timepoints (n=3).

[6] = general statement, no reference given; cited from earlier work
Excerpt: Verteporfin (V), is a photosensitizer and inhibitor of the activation of YAP.^[ [41] ^] […] Verteporfin, in its liposomal formulation Visudyne, is an approved drug for certain ophthalmological indications. In clinical trials for cancer therapy, Verteporfin is mostly used for photodynamic therapy (clinical trial identifiers: NCT03067051, NCT03033225, NCT04590664).

[7] = design: method as in PMID 39575977; details: cited from earlier work
[8] = design: method as in PMID 36632235; details: cited from earlier work

**Q.** With `C[C@H](NC(=O)CNC(=O)[C@@H]1CCCN1C(=O)[C@H](CO)NC(=O)[C@H](CS)NC(=O)CCCCCNC(=O)c1ccc2c(c1)C(=O)OC21c2ccc(O)cc2Oc2cc(O)ccc21)C(=O)N[C@@H](CCCCN)C(=O)O` [FAM‐mUNO, reference compound] ({5FAM-Ahx}-CSPGAK-OH) as the compound, how does the liver accumulation [1] read?
**A.** Its liver accumulation is “does not accumulate in the liver”.

**Q.** Which “affinity of mannose (CD206 recognition moiety)” value [2] does the source give for `OC[C@H]1OC(O)[C@@H](O)[C@@H](O)[C@@H]1O` (stereo partly drawn) [mannose] here?
**A.** Its value is “millimolar range”.

**Q.** Which “half‐life in tumor lysate, fold increase with respect to FAM‐mUNO” value [3] does the source give for “FAM‐Ahx‐G(CTKSIPPIC)SPGAK‐OH (disulfide) [FAM‐MACTIDE, carboxyfluorescein-labelled MACTIDE]” here?
**A.** Its value is 5 fold.

**Q.** And the CD206/FAM colocalization ([4]; i.p., 4T1 tumors, Fiji tM2 index, n = 3 tumors)?
**A.** Its CD206/FAM colocalization is 80%.

**Q.** And the “FAM intensity per CD206^+ TAM, fold higher than FAM‐mUNO” value ([4]; i.p., 4T1 tumors, ImageJ, n = 3 mice)?
**A.** Its value is 10 fold.

**Q.** And the “CD206^+ TAM targeting, intravenous” value ([4]; i.v., immunostaining of 4T1 tumor sections for FAM and CD206)?
**A.** Its value is “showed CD206^+ TAM targeting”.

**Q.** What about the “CD206^+ TAM targeting, oral” value ([4]; oral gavage, immunostaining of 4T1 tumor sections) of the same compound?
**A.** Its value is “targeted CD206^+ TAM”.

**Q.** And the liver accumulation [1]?
**A.** Its liver accumulation is “does not accumulate in the liver”.

**Q.** What about the “blood half‐life” value [5] of the same compound?
**A.** The value was “equal to those obtained previously for FAM‐mUNO”.

**Q.** What does the source list for Verteporfin?
**A.** solubility in water [6]: insoluble in water; cell specificity of free Verteporfin [7]: not cell‐specific; cardiotoxicity in vivo [8]: cardiotoxicity
